# From ChEMBL document CHEMBL1201862, “PubChem BioAssay data set” (2004)
#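 Method: 48-hour compound exposure of cells in 96-well plates, five concentrations, linear interpolation of endpoints. The concentration for 50% growth inhibition is given as GI50.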 Activity calls are given as the source filed them. No stated cut-off is given here; in the data, active = GI50 up to about 1.1 µM and inactive = higher. Residues, ends and D or L forms follow the SMILES beside them. *: point of attachment. Boc = CC(C)(C)OC(=O)*
# Columns and labels:
# Test in all cases: growth of human tumour cells (NCI), 48 h
# M14 = test system: M14
# RPMI-8226 = test system: RPMI-8226
# Hs-578T = test system: Hs-578T
# HCC 2998 = test system: HCC 2998
# SW-620 = test system: SW-620
# SK-OV-3 = test system: SK-OV-3
# COLO 205 = test system: COLO 205
# SK-MEL-28 = test system: SK-MEL-28
# OVCAR-5 = test system: OVCAR-5
# UO-31 = test system: UO-31
# NCI-H226 = test system: NCI-H226
# NCI-H522 = test system: NCI-H522
# U-251 = test system: U-251
# SNB-75 = test system: SNB-75
# ACHN = test system: ACHN
# A549 = test system: A549
# HOP-92 = test system: HOP-92
# DU-145 = test system: DU-145
# SR = test system: SR
Structure (SMILES),GI50 (M14),GI50 (RPMI-8226),GI50 (Hs-578T),GI50 (HCC 2998),GI50 (SW-620),GI50 (SK-OV-3),GI50 (COLO 205),GI50 (SK-MEL-28),GI50 (OVCAR-5),GI50 (UO-31),GI50 (NCI-H226),GI50 (NCI-H522),GI50 (U-251),GI50 (SNB-75),GI50 (ACHN),GI50 (A549),GI50 (HOP-92),GI50 (DU-145),GI50 (SR)
CC(=O)c1cc2c(s1)C(=O)c1ccsc1C2=O,0.28 µM (active),3.85 µM (inactive),0.158 µM (active),1.74 µM (inactive),0.275 µM (active),1.87 µM (inactive),19.1 µM (inactive),0.185 µM (active),0.74 µM (active),0.243 µM (active),1.6 µM (inactive),0.16 µM (active),0.233 µM (active),0.192 µM (active),0.215 µM (active),2.05 µM (inactive),1.56 µM (inactive),0.309 µM (active),
COC(=O)[C@]1(C)CC[C@]2(C)CC[C@]3(C)C4[C@H]5Oc6c(cc7c(c6C)CCC6[C@@]7(C)CC[C@@]7(C)C8[C@](C)(CCC[C@@]8(C)C(=O)OC)CC[C@]67C)O[C@H]5c5c(cc6c(c5C)O[C@@]5(C)C7=CC=C8[C@@](C)(CC[C@@]9(C)[C@@H]%10C[C@](C)(C(=O)OC)CC[C@]%10(C)CC[C@]89C)C7=CC(=O)[C@@]5(O)O6)[C@]4(C)CC[C@@]3(C)C2C1 (stereo partly specified),4.01 µM (inactive),,5.78 µM (inactive),,2.53 µM (inactive),> 12.5 µM (inactive),6.35 µM (inactive),7.53 µM (inactive),9.79 µM (inactive),2.52 µM (inactive),> 12.5 µM (inactive),2.49 µM (inactive),3.66 µM (inactive),2.79 µM (inactive),3.94 µM (inactive),> 12.5 µM (inactive),1.92 µM (inactive),3.6 µM (inactive),
N/N=C1\C(=O)N(C2CCCCC2)C(=O)C1C(=O)NC1CCCCC1 (stereo unspecified),> 100 µM (inactive),> 100 µM (inactive),,> 100 µM (inactive),> 100 µM (inactive),47.5 µM (inactive),> 100 µM (inactive),81.8 µM (inactive),> 100 µM (inactive),> 100 µM (inactive),> 100 µM (inactive),> 100 µM (inactive),> 100 µM (inactive),56.4 µM (inactive),> 100 µM (inactive),> 100 µM (inactive),> 100 µM (inactive),,> 100 µM (inactive)
Cc1ccc(NC(=O)CCC/C(CC(=O)c2ccc(Br)cc2)=N/NC(=O)CC#N)cc1,> 100 µM (inactive),> 100 µM (inactive),,> 100 µM (inactive),> 100 µM (inactive),,> 100 µM (inactive),> 100 µM (inactive),> 100 µM (inactive),> 100 µM (inactive),> 100 µM (inactive),,> 100 µM (inactive),> 100 µM (inactive),> 100 µM (inactive),> 100 µM (inactive),> 100 µM (inactive),,
Cc1nnc([C@@]2(C)CC[C@H]3[C@@H](CCC4=CC(=O)CC[C@@]43C)[C@@H]2CC#N)o1,> 100 µM (inactive),> 100 µM (inactive),> 100 µM (inactive),,> 100 µM (inactive),> 100 µM (inactive),> 100 µM (inactive),,> 100 µM (inactive),> 100 µM (inactive),> 100 µM (inactive),> 100 µM (inactive),> 100 µM (inactive),41 µM (inactive),> 100 µM (inactive),> 100 µM (inactive),> 100 µM (inactive),,> 100 µM (inactive)
Cc1nc2c3c(ccc2nc1O)C(=O)c1ccccc1C3=O,> 100 µM (inactive),,,> 100 µM (inactive),56.2 µM (inactive),24.5 µM (inactive),> 100 µM (inactive),> 100 µM (inactive),> 100 µM (inactive),6.15 µM (inactive),29.2 µM (inactive),7.18 µM (inactive),54.1 µM (inactive),15.6 µM (inactive),24.4 µM (inactive),52 µM (inactive),96.2 µM (inactive),,> 100 µM (inactive)
Cc1cc2c(cc1Cl)SC(N/N=C(\N)c1ccc(Cl)cc1)=NS2(=O)=O,81.5 µM (inactive),,48.5 µM (inactive),40.6 µM (inactive),25.8 µM (inactive),> 100 µM (inactive),42.3 µM (inactive),54.7 µM (inactive),> 100 µM (inactive),42.7 µM (inactive),> 100 µM (inactive),30.6 µM (inactive),44.7 µM (inactive),74.5 µM (inactive),84.3 µM (inactive),96.6 µM (inactive),10.4 µM (inactive),> 100 µM (inactive),
CC(C)(C)OC(=O)NC(Cc1ccc(O)cc1)C(=O)NC(CCCCN)C(=O)O (stereo not drawn) (Boc-Tyr-Lys-OH; configuration not given here),17.4 µM (inactive),32.9 µM (inactive),,28.9 µM (inactive),33.3 µM (inactive),,,23.8 µM (inactive),25 µM (inactive),19.7 µM (inactive),39.8 µM (inactive),6.41 µM (inactive),20.9 µM (inactive),31.6 µM (inactive),23.7 µM (inactive),40.4 µM (inactive),,27 µM (inactive),28.6 µM (inactive)
CC1=CC(=O)N(n2c(-c3ccccc3)n[nH]c2=O)C1=O,> 100 µM (inactive),> 100 µM (inactive),> 100 µM (inactive),> 100 µM (inactive),> 100 µM (inactive),> 100 µM (inactive),> 100 µM (inactive),> 100 µM (inactive),> 100 µM (inactive),> 100 µM (inactive),> 100 µM (inactive),> 100 µM (inactive),> 100 µM (inactive),> 100 µM (inactive),> 100 µM (inactive),> 100 µM (inactive),,> 100 µM (inactive),
Cc1cn(C2CC(COCc3ccccc3)N(CCO[Si](C)(C)C(C)(C)C)O2)c(=O)[nH]c1=O (stereo unspecified),15 µM (inactive),15.1 µM (inactive),,,15.5 µM (inactive),17.6 µM (inactive),15.1 µM (inactive),16.8 µM (inactive),17.7 µM (inactive),13.8 µM (inactive),,16.2 µM (inactive),19.2 µM (inactive),,14.9 µM (inactive),15.1 µM (inactive),8.81 µM (inactive),15.8 µM (inactive),35.1 µM (inactive)
C=CCc1cc(-c2cc(CC=C)c(O)c(CNCCCl)c2)cc(CNCCCl)c1O,18 µM (inactive),21.4 µM (inactive),,17.3 µM (inactive),20.8 µM (inactive),,17.9 µM (inactive),18.6 µM (inactive),,14.5 µM (inactive),18.3 µM (inactive),16.9 µM (inactive),16.6 µM (inactive),12.3 µM (inactive),16.5 µM (inactive),24.3 µM (inactive),10.6 µM (inactive),,
C[n+]1c(-c2ccc(/C=N/NC(=O)C(=O)N/N=C/c3ccc(-c4cn5ccsc5[n+]4C)cc3)cc2)cn2ccsc21,> 100 µM (inactive),82.6 µM (inactive),> 100 µM (inactive),> 100 µM (inactive),> 100 µM (inactive),> 100 µM (inactive),> 100 µM (inactive),87.3 µM (inactive),> 100 µM (inactive),> 100 µM (inactive),,> 100 µM (inactive),> 100 µM (inactive),> 100 µM (inactive),> 100 µM (inactive),> 100 µM (inactive),,,> 100 µM (inactive)
COC(=O)[C@@H]1N2C(=S)N(c3ccccc3)C(=O)[C@H]2SC1(C)C,> 100 µM (inactive),> 100 µM (inactive),,> 100 µM (inactive),> 100 µM (inactive),> 100 µM (inactive),> 100 µM (inactive),> 100 µM (inactive),> 100 µM (inactive),> 100 µM (inactive),> 100 µM (inactive),> 100 µM (inactive),> 100 µM (inactive),> 100 µM (inactive),> 100 µM (inactive),> 100 µM (inactive),55.6 µM (inactive),> 100 µM (inactive),65.6 µM (inactive)
CC(C)=CCOc1ccc(-c2coc3cc4c(c(O)c3c2=O)C=CC(C)(C)O4)cc1,,27.3 µM (inactive),,83.6 µM (inactive),> 100 µM (inactive),,> 100 µM (inactive),91.4 µM (inactive),> 100 µM (inactive),> 100 µM (inactive),> 100 µM (inactive),0.129 µM (active),38.8 µM (inactive),,> 100 µM (inactive),32.9 µM (inactive),,,> 100 µM (inactive)
CC(=O)/C=C1\CC(=O)Nc2ccccc2N1,> 100 µM (inactive),> 100 µM (inactive),,> 100 µM (inactive),> 100 µM (inactive),> 100 µM (inactive),,> 100 µM (inactive),> 100 µM (inactive),> 100 µM (inactive),> 100 µM (inactive),,> 100 µM (inactive),> 100 µM (inactive),> 100 µM (inactive),> 100 µM (inactive),> 100 µM (inactive),,
S=c1[nH]c2c(Cl)c(Cl)c(Cl)c(Cl)c2[nH]1,21.4 µM (inactive),3.52 µM (inactive),18.5 µM (inactive),0.955 µM (active),19.8 µM (inactive),20.1 µM (inactive),17.2 µM (inactive),,25.8 µM (inactive),16 µM (inactive),,1.2 µM (inactive),31.7 µM (inactive),,15.8 µM (inactive),25.2 µM (inactive),19.5 µM (inactive),36.1 µM (inactive),
